We go through one compound from PMC4326489, “Efficacy and pharmacokinetic evaluation of a novel anti-malarial compound (NP046) in a mouse model” (Malaria Journal, 2015).

Data set [1] is described as follows: Metabolic stability in human liver microsomes. In kind it is in vitro ADME. Particulars: 0-60 minutes, read-out: in vitro intrinsic clearance. The method, then:
(§1) Metabolism is an enzymatic process in which a drug is chemically modified into polar metabolites that can be more readily excreted from the body. Metabolism occurs mainly in the liver, and the intestine. The metabolic stability of NP046 was determined in human and mouse liver microsomes using a multiple-time-point method at 0, 5, 10, 30, and 60 minutes [for the methodology see Additional file 5].
(§2) Summary of the assay method for the determination of microsomal stability:
(§3) The assay method was adopted from Obach, 1999, Giuliano et al., 2005, and Naritomi et al., 2001, with a slight modification.
(§4) The liver microsome (human and mouse) was thawed at 37 °C, and diluted to 0.4 mg/ml in a preheated (at 37 °C) 0.1 M phosphate buffer.
(§5) The primary stock solutions (10 mM) of the controls and test compounds were diluted as follows: first in DMSO to obtain 400 µM solutions followed by dilution in phosphate buffer to 40 µM, and were vortex mixed well by vortexing at each step of dilution.
(§6) A reaction premix (in triplicate for each control and test compound) were prepared by mixing 15 µl of the 40 µM solution with 530 µl of 0.4 mg/ml microsome mixture in a premix plate, and mixed carefully using a plate shaker. […]
(§7) The intrinsic clearance (ml/min/kg) was calculated using the equation (Obach et al., 1997): […]
A general note: Liver microsomes are a subcellular fraction often used to study metabolism.

A short description of data set [2]: Stability in whole blood (long term, freeze and thaw, on bench). To be noted: for Long term stability, mean concentration found: -80°C, 92 days; for On bench stability, mean concentration found: on bench 3.3 hours. In kind it is in vitro ADME, human. As for the experimental part: Owing to the scarcity of mouse blood, the assay was developed and validated using human whole blood and then cross validated with mice whole blood to ensure that the same results were obtained in the same matrix of both species. NP046 was stable for 100 days in stock solutions of methanol and acetonitrile when stored at room temperature and -20 °C. It was stable in whole blood on bench for 3.3 hours while waiting for extraction, and was stable after three freeze-thaw cycles too.

A short description of data set [3]: Kinetic solubility (HPLC-UV). In kind it is physicochemical. To be noted: aqueous buffer, kinetic from dmso stock, PBS pH 2.0.
Method: The concentration of the test compound (x) in PBS samples was calculated from the peak area (y) in its UV chromatogram by extrapolation from the three-point calibration line, using the equation y = ax + b; where a = slope and b = intercept.
Summary of the assay method for the determination kinetic solubility:
PBS was prepared and its pH adjusted to 2.0 and 7.4
primary stock solutions of the test compounds and controls (reserpine and hydrocortisone) in DMSO at 10 mM were prepared
Samples were briefly vortex mixed
samples were incubated for 2 hours while mixing in an incubator with orbital shaker at 200 rpm
samples were centrifuged at 3500 rpm for 15 minutes at 22 °C
the supernatant of the standards were transferred from the clear 96-well plate into an opaque, round bottom 96-well analysis plate, while the aqueous samples were filtered using a vacuum manifold through a multi-screen filter plate (MSRLN 0450, 0.4 µM), into the same opaque, round bottom 96-well plate
samples were analysed using HPLC-UV method by injecting the STDs in duplicate, and the samples in singlet.
Data set [4] is described as follows: Metabolic stability in mouse liver microsomes. In kind it is in vitro ADME. To be noted: 0-60 minutes, read-out: in vitro intrinsic clearance. As for the experimental part:
as §1, §2, §3, §4, §5, §6, §7

The next data set concerns Caco-2 cell line. Kind of data set: Caco-2 permeability, apical to basolateral drug transport assay. In kind it is in vitro ADME, human. Particulars: transport buffer pH 7.4, LC-MS/MS, experiment repeated with same result. The source says:
Permeability is the speed/velocity and extent to which a drug passes through a biological membrane obstacle in a living system, such as the gastrointestinal (GI) epithelial cells, the blood capillary wall, the target cell membrane. The Caco-2 cell line (a continuous line of heterogeneous human epithelial colorectal adenocarcinoma cells), the most widely used and recognized as a model of the intestinal barrier was used to determine the in vitro permeability of NP046 [for the methodology see Additional file 6]. The transport of each drug from the apical side to the basolateral side was done using a transport buffer that consisted of Hank’s Balanced Salt Solution (HBSS) + 10 mM HEPES + […] NaHCO3, pH 7.4 (1:100 1 M HEPES in HBSS). The drug transport assay was performed by determining the concentrations of the test compound from the basolateral chamber, using an LC-MS/MS assay. […] Therefore, the experiment was repeated and the same result was obtained. This could be due to the following reasons: IVc. Drug transport assay: The monolayer was rinsed with HBSS Test compounds (200 µl) was added into the apical chambers of the monolayers inserted in a plate containing 600 µl HBSS The plate was placed in a water bath with orbital shaker (60 rpm) for 2 hours at 37 °C Fifty micro litters of the solution were removed from the apical and basolateral wells and analysed using LC-MS method.
On the technique in general: Caco-2 monolayers are a common model of the intestinal barrier.

Data set [5] is described as follows: Analyte stock solution stability. In kind it is physicochemical. To be noted: 100 days; for Analyte stock solution stability, % Reference: vs fresh. As for the experimental part:
NP046 was stable for 100 days in stock solutions of methanol and acetonitrile when stored at room temperature and -20 °C. It was stable in whole blood on bench for 3.3 hours while waiting for extraction, and was stable after three freeze-thaw cycles too.

Where [6] appears, read: whole blood, nominal High (799.9).
[7] abbreviates: whole blood, nominal Low (4.999).

Values after ≈ are worked out from the molar mass of the structure shown.

Broadly, the solubility is the concentration that dissolves in the medium under given conditions. A low value points to a poorly soluble substance. As for `Oc1cc(CCCc2ccc(F)cc2)ccc1CN1CCCCC1` [NP046, 5-(3-(4-fluorophenyl)propyl)-2-(piperidin-1-ylmethyl)phenol], the microsomal CLint at 0.99 µM in data set [1] was found to be 119 µL/min/mg; in data set [4] it was 657 µL/min/mg. For the same compound, the “stability in whole blood on bench” value in data set [2] (3.3 hours while waiting for extraction) is “stable”. Besides, in data set [2] (whole blood at -80°C for 92 days), the “long term matrix stability” value was “stable”. The “Long term stability, mean concentration found” value in data set [2] (setting [6]) came to 732. ng/ml; in data set [2] (setting [7]) it was 5.081 ng/mL. Moreover, the entries for the “On bench stability, mean concentration found” value in data set [2] (setting [6]) and in data set [2] (setting [7]) were 716.9 ng/mL and 5.370 ng/mL, respectively. Besides, the “stability after freeze-thaw cycles” value in data set [2] (whole blood, three freeze-thaw cycles) is given as “stable”. Moreover, the “Freeze and thaw stability, mean concentration found” value in data set [2] (whole blood, three freeze-thaw cycles, nominal High (799.9)) came out at 718.6 ng/mL; in data set [2] (whole blood, three freeze-thaw cycles, nominal Low (4.999)), 5.037 ng/mL. The concentration in solution in data set [3] (solubility at 2 h) was 185 µM (≈ 60.7 µg/mL). The “test compound found in the basolateral chamber (apical to basolateral transport)” value with Caco-2 cell line is given as “no quantifiable amount”. The “Analyte stock solution stability, % Reference” value was 102.1% in data set [5] (in acetonitrile, room temperature); 83.1% in data set [5] (in acetonitrile, ~ 5°C); 99.9% in data set [5] (in acetonitrile, ~ -20°C); 93.7% in data set [5] (in methanol, room temperature); 87.8% in data set [5] (in methanol, ~ 5°C); 94.3% in data set [5] (in methanol, ~ -20°C). For the same compound, the “stability in stock solutions” value in data set [5] (methanol and acetonitrile, room temperature and -20°C) is listed as “stable”.
